Consider three compounds from patent US20050227249A1, “Polymorphisms in the human MDR-1 gene and their use in diagnostic and therapeutic applications” (priority 1999, published 2005).

By AUC is commonly meant concentration integrated over time. Read a low AUC as less exposure.

SMILES strings stand for the structures. Values joined by “and” are separate entries in the source; they are usually repeats but may differ in a detail not shown here. Equal entries are not always repeated.

Data set [1] in a line: Phenytoin blood levels in patients by 2C9/2C19 and MDR-1 exon 26 (C3435T) genotype. In kind it is in vivo, human.
A short description of data set [2]: digoxin maximum plasma concentration (Cmax) at steady state after oral application, by MDR-1 exon 26 genotype. In kind it is in vivo, human. The note with it: 7 T/T vs 7 C/C volunteers, T/T higher, p=0.006.
Procedure: For a further validation of the correlation of MDR-1 genotype with intestinal digoxin uptake, additional volunteers of another clinical study at the University Medical Center, Charite in Berlin that addresses blood levels of digoxin after oral application (without rifampin induction and PGP protein determination, Johne et al. (1999), Clin.
In this study, maximum plasma concentrations (Cmax) were evaluated during steady state conditions of digoxin.
The target in data set [3] is T1, MDR-1 (Homo sapiens, UniProt P08183). Nature of the data set: clinical. Details: from tissue; host or cells: colon (intestine) of human probands, in vivo. Particulars: in vivo, po, 1 mg, digoxin concentration in blood (Dig AUC). An excerpt: To identify potential direct correlations of MDR-1 polymorphisms with clinical relevant phenotypes in humans, probands from a study at the Dr. Margarete Fischer-Bosch-Institut for Clinical Pharmacology in Stuttgart, were subjected to the determination of MDR-1 polymorphisms as described in examples 2-4. The expression levels of MDR-1 in the colon and liver of these patients was also estimated by established immunohistochemical detection of the MDR-1 protein. In the proband population, in addition to measurements of the expression levels of MDR-1 in the colon, measurements of MDR-1 upon induction of the gene by rifampicine were performed. Also, the in vivo activity of MDR-1 under noninduced and rifampicine induced conditions was determined by measuring the blood concentrations of orally administered digoxin (1 mg), which is a known MDR-1 substrate and whose blood concentration also depends on the MDR-1 activity in the colon. The results of the MDR-1 measurements, rifampicine induction experiments and digoxin-experiments, as well as results from the MDR-1 polymorphism detection analysis in the proband population show correlations between MDR-1 gene expression and MDR-1 in vivo activity with certain polymorphisms. […]

The target in data set [4] is T1, MDR-1. Nature of the data set: clinical. Details: The expression levels of MDR-1 in the colon and liver of these patients was also estimated by established immunohistochemical detection; from tissue; host or cells: colon (intestine) of human probands, in vivo. The note with it: in vivo. An excerpt: To identify potential direct correlations of MDR-1 polymorphisms with clinical relevant phenotypes in humans, probands from a study at the Dr. Margarete Fischer-Bosch-Institut for Clinical Pharmacology in Stuttgart, were subjected to the determination of MDR-1 polymorphisms as described in examples 2-4. The expression levels of MDR-1 in the colon and liver of these patients was also estimated by established immunohistochemical detection of the MDR-1 protein. In the proband population, in addition to measurements of the expression levels of MDR-1 in the colon, measurements of MDR-1 upon induction of the gene by rifampicine were performed. Also, the in vivo activity of MDR-1 under noninduced and rifampicine induced conditions was determined by measuring the blood concentrations of orally administered digoxin (1 mg), which is a known MDR-1 substrate and whose blood concentration also depends on the MDR-1 activity in the colon. The results of the MDR-1 measurements, rifampicine induction experiments and digoxin-experiments, as well as results from the MDR-1 polymorphism detection analysis in the proband population show correlations between MDR-1 gene expression and MDR-1 in vivo activity with certain polymorphisms.
This was done by measuring the blood concentrations of orally administered digoxin which is a known MDR-1 substrate and whose blood concentration also depends on the MDR-1 activity in the colon. […] The probands that harbor the T allele (correlates with weaker MDR-1 expression, see Tab. 4), contain higher blood levels of digoxin compared to samples which have only the corresponding homozygous C-allele. […] This is totally consistent with the function of MDR-1 in the colon, i.e. re-transport and elimination of substrates from the uptaking cells into the lumen of the colon. […] The difference of the digoxin blood levels between these individuals was more than 4-fold.

Data set [5] has as its system MDR-1. In words: MDR-1 (PGP) protein levels in probands upon induction by rifampicine, immunohistochemical detection. It is filed as in vivo, human. The note with it: for PGP concentration, mean / PGP concentration: rifampicine-induced probands; for PGP concentration: individual probands. The procedure:
The expression levels of MDR-1 in the colon and liver of these patients was also estimated by established immunohistochemical detection of the MDR-1 protein. In the proband population, in addition to measurements of the expression levels of MDR-1 in the colon, measurements of MDR-1 upon induction of the gene by rifampicine were performed. Also, the in vivo activity of MDR-1 under noninduced and rifampicine induced conditions was determined by measuring the blood concentrations of orally administered digoxin (1 mg), which is a known MDR-1 substrate and whose blood concentration also depends on the MDR-1 activity in the colon.

T1 sequence (P08183 whole entry): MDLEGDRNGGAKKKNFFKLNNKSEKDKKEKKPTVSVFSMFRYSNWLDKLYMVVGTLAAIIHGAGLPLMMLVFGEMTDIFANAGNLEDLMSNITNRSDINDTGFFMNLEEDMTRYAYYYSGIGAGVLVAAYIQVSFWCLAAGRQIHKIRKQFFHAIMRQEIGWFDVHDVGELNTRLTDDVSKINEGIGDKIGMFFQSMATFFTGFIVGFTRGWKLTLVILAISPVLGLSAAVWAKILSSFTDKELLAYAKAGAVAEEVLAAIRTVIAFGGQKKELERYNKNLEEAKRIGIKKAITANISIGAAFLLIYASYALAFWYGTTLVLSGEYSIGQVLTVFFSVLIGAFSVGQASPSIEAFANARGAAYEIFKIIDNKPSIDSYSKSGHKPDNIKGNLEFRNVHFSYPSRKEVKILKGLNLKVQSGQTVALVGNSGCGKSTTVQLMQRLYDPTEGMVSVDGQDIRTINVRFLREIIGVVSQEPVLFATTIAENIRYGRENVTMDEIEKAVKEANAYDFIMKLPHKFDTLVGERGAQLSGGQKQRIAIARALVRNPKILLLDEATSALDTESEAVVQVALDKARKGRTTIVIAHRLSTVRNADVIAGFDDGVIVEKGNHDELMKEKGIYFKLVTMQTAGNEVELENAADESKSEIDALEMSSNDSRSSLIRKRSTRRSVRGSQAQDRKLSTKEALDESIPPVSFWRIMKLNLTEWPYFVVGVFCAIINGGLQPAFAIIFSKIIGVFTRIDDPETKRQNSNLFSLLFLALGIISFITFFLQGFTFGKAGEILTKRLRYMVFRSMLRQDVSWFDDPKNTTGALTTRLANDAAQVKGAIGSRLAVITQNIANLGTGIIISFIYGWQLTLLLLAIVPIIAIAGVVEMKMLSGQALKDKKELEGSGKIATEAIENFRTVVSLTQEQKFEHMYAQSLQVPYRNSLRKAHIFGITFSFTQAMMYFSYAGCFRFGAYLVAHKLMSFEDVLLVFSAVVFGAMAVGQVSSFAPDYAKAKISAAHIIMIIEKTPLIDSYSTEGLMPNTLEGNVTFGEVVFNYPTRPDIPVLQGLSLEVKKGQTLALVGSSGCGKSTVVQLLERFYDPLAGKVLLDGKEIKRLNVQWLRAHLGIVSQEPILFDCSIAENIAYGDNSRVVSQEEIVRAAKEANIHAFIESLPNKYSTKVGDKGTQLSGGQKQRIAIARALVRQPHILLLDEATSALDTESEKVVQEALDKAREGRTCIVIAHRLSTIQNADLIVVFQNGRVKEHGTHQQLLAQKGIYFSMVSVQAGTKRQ

Take `O=C1NC(=O)C(c2ccccc2)(c2ccccc2)N1` [Phenytoin]: the “highest blood concentration, increase compared to the normal population” value in data set [1] (2C9 deficient patient with low PGP (T/T) genotype, within a group of 100 patients) was “about twofold”. Also, the Phenytoin blood levels result in data set [1] (2C9 normal metabolizers, MDR-1 genotype CC and CT (intestinal PGP high/medium)) is recorded as “normal”; in data set [1] (2C9 normal metabolizers, MDR-1 genotype TT (intestinal PGP low)), “normal”; in data set [1] (2C9 weak and/or deficient metabolizers, MDR-1 genotype CC and CT (intestinal PGP high/medium)) it was “high”; in data set [1] (2C9 weak and/or deficient metabolizers, MDR-1 genotype TT (intestinal PGP low)) it was “VERY HIGH”.
For the compound `C[C@H]1O[C@@H](O[C@H]2[C@@H](O)C[C@H](O[C@H]3[C@@H](O)C[C@H](O[C@H]4CC[C@@]5(C)[C@H](CC[C@@H]6[C@@H]5C[C@@H](O)[C@]5(C)[C@@H](C7=CC(=O)OC7)CC[C@]65O)C4)O[C@@H]3C)O[C@@H]2C)C[C@H](O)[C@@H]1O` [digoxin], the “mean difference in digoxin Cmax between T/T and C/C groups” value in data set [2] was found to be 38%. In addition, the AUC in data set [3] stood at 63.6 ng·h/mL. Besides, in data set [4], the “difference of the digoxin blood levels between homozygous T and homozygous C proband” value was “more than 4 fold”; the “highest rif-induced dig blood level” value is recorded as 12.3; the “lowest rif-induced dig blood level” value is 57.3.
For `CO[C@H]1/C=C/O[C@@]2(C)Oc3c(C)c(O)c4c(O)c(c(/C=N/N5CCN(C)CC5)c(O)c4c3C2=O)NC(=O)/C(C)=C\C=C\[C@H](C)[C@H](O)[C@@H](C)[C@@H](O)[C@@H](C)[C@H](OC(C)=O)[C@@H]1C` [rifampicine], in data set [5] (proband homozygous C/C at position 176), the “highest rif-induced activity (PGP concentration)” value turned out to be 1264.9. In addition, in data set [5] (proband homozygous T/T at position 176), the “lowest rif-induced activity (PGP concentration)” value was found to be 142.1. For the same compound, in data set [5] (rifampicin-induced, highest (C/C) vs lowest (T/T) proband), the “difference of induced MDR-1 expression levels between homozygous C and homozygous T proband” value is 9 fold. Further, the “PGP concentration, mean” value is on record as 924 relative units in data set [5] (T-allele absent (C/C only)); 587 relative units in data set [5] (T-allele present (T/T and T/C)). Further, the PGP concentration was 423 relative units and 1264 relative units and 1086 relative units in data set [5] (T-allele absent (C/C only)); 142 relative units and 1085 relative units and 520 relative units and 601 relative units in data set [5] (T-allele present (T/T and T/C) at position 176 in exon 26).
